Test results taken from patent US11247976B2, “Synthetic ligands that modulate the activity of the RhlR quorum sensing receptor” (Wisconsin Alumni Research Foundation, priority 2016, dated 2022).
“Also recorded” adds a separate entry of the source. Marks after values point to notes of the source that are not given here.

What was measured:
RhlR = biological target: T1, RhlR (Pseudomonas aeruginosa, UniProt P54292); assay: E. coli RhlR reporter antagonism assay vs 10 μM BHL (JLD271/pJN105R2/pSC11-rhlI*); format: cell-based, P. aeruginosa; details: for inhibition at 10 µM: read-out: % inhibition (10 μM), compound at 10 μM in the presence of 10 μM BHL; for inhibition at 10 µM / inhibition at 1000 µM: negative = agonism stronger than 10 μM BHL alone; for inhibition at 1000 µM: read-out: % inhibition (1 mM), compound at 1 mM in the presence of 10 μM BHL
T1 construct: expressed in transfected cells; host or cells: E. coli JLD271 (ΔsdiA) with pJN105R2 (arabinose-induced) and pSC11-rhlI*
T1 sequence (P54292 whole entry): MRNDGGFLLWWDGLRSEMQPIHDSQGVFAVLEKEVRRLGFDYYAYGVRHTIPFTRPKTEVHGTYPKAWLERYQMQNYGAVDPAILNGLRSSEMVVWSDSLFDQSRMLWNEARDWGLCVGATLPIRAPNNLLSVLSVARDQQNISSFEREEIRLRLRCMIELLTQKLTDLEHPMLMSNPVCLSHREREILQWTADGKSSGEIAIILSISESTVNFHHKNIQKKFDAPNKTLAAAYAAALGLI

LasR = biological target: T2, LasR (Pseudomonas aeruginosa, UniProt P25084); assay: Selectivity of RhlR agonism over LasR agonism (E. coli LasR reporter JLD271/pJN105L/pSC11); format: cell-based, P. aeruginosa; details: RhlR % activity divided by LasR % activity, > = negligible activity in LasR reporter
T2 construct: expressed in transfected cells; host or cells: E. coli JLD271 (ΔsdiA) with pJN105L and pSC11
T2 sequence (P25084 whole entry): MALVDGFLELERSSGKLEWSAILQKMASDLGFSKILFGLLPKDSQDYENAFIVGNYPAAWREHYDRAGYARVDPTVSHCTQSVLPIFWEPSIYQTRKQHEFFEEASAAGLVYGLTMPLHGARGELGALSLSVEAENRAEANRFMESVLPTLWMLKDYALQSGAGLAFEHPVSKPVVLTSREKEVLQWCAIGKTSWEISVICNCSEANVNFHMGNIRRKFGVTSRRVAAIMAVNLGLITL
Protocol: All media and reagents for bacterial culture were purchased from commercial sources. Bacteria were cultured in Luria-Bertani broth (LB) at 37° C. with shaking at 200 rpm unless otherwise noted. The bacterial reporter strains used for this study were (i) the heterologous E. coli strain JLD271 (ΔsdiA) harboring the RhlR expression plasmid pJN105R2 and the rhlI-lacZ transcriptional fusion reporter pSC11-rhlI*, (ii) the heterologous E. coli strain JLD271 (ΔsdiA) harboring the LasR expression plasmid pJN105L and the […] transcriptional fusion reporter pSC11, and (iii) the P. aeruginosa strain PAO-JP2 (ΔlasrhlI) harboring the rhlI-gfp transcriptional fusion reporter prhlI-LVAgfp. Reporter strains JLD271/pJN105R2/pSC11-rhlI* and JLD271/pJN105L/pSC11 were grown in LB containing 100 μg/mL ampicillin and 10 μg/mL gentamicin. Freezer stocks of bacterial strains were maintained at −80° C. in 1:1 LB:50% glycerol.
To evaluate the modulatory activities of library compounds on RhlR and LasR using E. coli reporters, the strains JLD271/pJN105R2/pSC11-rhlI* and JLD271/pJN105L/pSC11 were used, respectively, as previously described.^38, 51 The following modifications were used in the RhlR agonism reporter assay, non-native compounds (10 μM or 1 mM) were compared to 1 mM BHL as the positive control. Briefly, a subculture was prepared by diluting an overnight culture 1:10 with fresh media containing 100 μg/mL ampicillin and 10 μg/mL gentamicin, and was incubated until it had grown to OD600=0.45. In all assays, L-arabinose was added to a final concentration of 4 mg/mL to induce RhlR expression. For RhlR agonism assays, activities of test compounds were measured relative to 1 mM BHL (the concentration required to induce a maximal level of RhlR activity). For RhlR antagonism assays, test compounds were competed against a concentration of BHL approximately equal to its EC50 value (10 μM). Activity was measured relative to 10 μM BHL. Inhibition was calculated by subtracting 100% from the relative activity value. Thus, 0% inhibition mimics represents no competitive displacement of 10 μM BHL by a test compound. In all assays, modifications were made to the standard Miller assay protocol to accommodate the use of the chlorophenol red-β-D-galactopyranoside (CPRG) β-galactosidase substrate. After cell lysis, 150 μL of the aqueous layer was transferred from each well of a solvent-resistant 96-well microtiter plate to the wells of a new clear, flat-bottom 96-well microtiter plate. CPRG (4 mg/mL in phosphate-buffered saline) was added to each well in 25 μL volumes. Plates were incubated at 30° C. until the positive control wells developed a red color (approximately 30 min). The amount of processed CPRG substrate was assessed by measuring the absorbance of each well at 570 nm. Enzymatic activity was calculated using the following equation: adjusted Miller units=1000·Abs570/(OD600·t·V),
LasR assays were processed using the protocol for the substrate ortho-nitrophenyl-β-galactoside (ONPG) as previously described elsewhere.^53; and LasR antagonism assays were performed versus the EC50 for OdDHL (2 nM).
The selectivity of certain compounds for RhlR over LasR was measured using a LasR reporter strain (details above). Table 6 provides a comparison of selectivity of RhlR agonism over LasR agonism for exemplary compounds. Table 7 provides a comparison of selectivity of RhlR antagonism over LasR antagonism for exemplary compounds.

Row | SMILES | inhibition at 10 µM (RhlR) | inhibition at 1000 µM (RhlR) | Fold selectivity of RhlR agonists over LasR agonism (LasR; tested concentration 1 mM) | Fold selectivity of RhlR agonists over LasR agonism (LasR; tested concentration 10 μm) | RhlR antagonist activity in words (RhlR; E. coli reporter vs 10 μM BHL) | Maximum Inhibition (%) (RhlR; E. coli reporter, relative to activation of 10 μM BHL alone)
1 | O=C(N[C@H]1CCCC1=O)C1CCC1 [RN12] | -39% | -98% | 6.8 fold | >56^b fold | – | –
2 | O=C(COc1ccc(I)cc1)N[C@H]1CCSC1=O [RN22] | 28% | – | – | – | potent antagonist activity; also recorded: activity comparable to previously identified compound E22 | 81%
3 | CC(C)CC(=O)N[C@H]1CCCC1=O [RN36] | -35% | -122% | >84^b fold | 105^ fold | – | –
4 | CC(C)CC(=O)N[C@H]1CCSC1=O [RN37] | -59% | -81% | 13 fold | >85^b fold | – | –
